Reference: patent publication US20220087970A1, “PREVENTION OF ANESTHETIC-INDUCED NEUROCOGNITIVE DYSFUNCTION” (The Johns Hopkins University, priority 2019, published 2022)

Tests used:
neuron cultures = assay: Neuron cultures, synapses (PSD95/Synaptophysin puncta) at DIV14; assay type: cell-based; conditions: DETA 150 μM and ODQ 100 μM for 4 hrs right before exposure to gases at DIV7
Protocol: Neuron cultures were transfected with GFP-AAV virus at DIV-4 and were exposed to NO donor (DETA) 150 μM and sGC inhibitor (ODQ) 100 μM for 4 hrs right before exposure to gases at DIV7. Cells were returned back to incubator with half media change every second day. At DIV14, cells were fixed and stained with PSD95 and Synaptophysin. […] Scale bar is 5 μm. FIG. 23B: Synapse were analyzed using puncta analyzer plugin as shown in methods section.

primary neuron cultures = assay: Primary neuron cultures, long thin spines and filopodia at DIV7; assay type: cell-based; conditions: for effect on PDZ2WT-induced loss of long thin spines and filopodia at DIV7: PDZ2WT peptide 1 μM 4 hrs; for effect on PDZ2WT-induced loss of long thin spines and filopodia at DIV7 / effect on isoflurane-induced loss of long thin spines and filopodia at DIV7: DETA NONOate 150 μM, ODQ 100 μM added to NO donor; for effect on isoflurane-induced loss of long thin spines and filopodia at DIV7: isoflurane 1.5% 4 hrs
Protocol: Primary neuron cultures were exposed to control gas (25% O2, 5% CO2, bal N2), isoflurane (1.5% ISO in 25% O2, 5% CO2, bal N2), DETA NONOate NO donor 150 μM and sGC inhibitor ODQ 100 μM for 4 hrs. […] MAP2 dendrite marker, green. Drebrin A/E immature spine/filopodia marker, red. Scale bar is 5 μm. FIG. 20B, Density of long thin spines and filopodia at DIV7 among exposed groups analyzed using Imaris 93.1;
MAP2, green. Drebrin, red. Scale bar is 5 μm. FIG. 21B, show the density of long thin spines and filopodia among exposed groups;
Neuron cultures were exposed to control gas (25% O2, 5% CO2, balance N2) or sevoflurane (2.1% ISO in 25% O2, 5% CO2, balanced N2) for 4 hrs. […] Scale bar is 5 μm. FIG. 22B, Density of long thin spines and filopodia among exposed groups; and […]

[1] = test system: PSD-95 or PSD-93 and the NMDA receptor or nNOS; conditions: clinically relevant concentrations; Fang et al., 2003; Tao et al., 2015; cited from earlier work
C57BL6 mice = assay: Novel object recognition at PND21; assay type: in vivo; conditions: molsidomine 4 mg/kg ip after PND7 exposure, PND21
Protocol: 1.3.2 Anesthesia, Peptide, and Molsidomine Injections. PND7 control and experimental mice were placed in a clear plastic cone and body temperature maintained by a heating blanket set to 35° C. Vital signs and physiological monitoring were assessed using PhysioSuite® (Kent Scientific Corporation, Torrington, Conn., USA) and blood gasses were collected arterially. […] Note that lower concentrations of 02 can be used, e.g., between 20% to 100% 02, including 20%, 25%, 30%, 35%, 40%, 45%, 50%, 55%, 60%, 65%, 70%, 75%, 80%, 85%, 90%, 95%, 96%, 97%, 98%, 99%, and 100% 02. Naïve animals were left with the dams. Anesthesia was initiated with 2.4% ISO in 100% oxygen for 2 min and tapered down to 1.5% within 15 min. Exposure to 1.5% ISO was continued for 3 hours and 45 min (total 4 hours ISO). Control ‘CON’ animals were exposed to 100% oxygen only. At the end of the exposure animals were maintained in oxygen on the heating blanket for 10 min then returned to dams. […] Tao and Johns, 2008. A single injection of peptide was given ip. Separate peptide cohorts were injected in parallel with mice undergoing exposure to anesthesia or O2 control. Purification of fusion peptides was performed by Creative BioMart (Shirley, N.Y.) and verified by Coomassie blue staining and Western blot analysis and then stored in 10% glycerol/phosphate buffered saline at −80° C. until use. The Tat-PSD-95 PDZ2WT and MUT plasmids used to generate proteins containing an amino-terminal, in-frame, 11-amino-acid, minimal transduction domain (residues 47-57 of human immunodeficiency virus Tat protein) termed Tat. […] Fang et al., 2003. The NO donor molsidomine [(N-[ethoxycarbonyl]-3-[4-morpholinosydnomine] (Sigma, St. Louis, Mo.) was injected at 4 mg/kg into mice ip in 100 μL sterile saline as previously described. The NO donor was added immediately following cessation of anesthesia or control (O2) exposure, i.e., the NO donor was injected 4 hours after onset of anesthesia. One of ordinary skill in the art upon review of the present disclosure would appreciate that the NO donor could be administered at other times during anesthesia, including at the onset of anesthesia. Control animals were injected ip with the vehicle (saline).
1.3.7 Novel Object Recognition. The novel object recognition (NOR) procedure was based upon the original Ennaceur et al., 1988, procedure and was used to assess nonspatial hippocampal memory. Clark et al., 2000; Baker and Kim, 2002; Reger et al., 2009. It consisted of a training ‘familiarization’ phase followed by a testing phase. During training, mice were allowed to freely explore within an opaque box (40 cm W×40 cm L×34 cm H) containing two identical objects for 10 min. Data were recorded with a video camera and time spent with each object was recorded using ANYmaze software (Stoelting). Object investigation time was determined by the amount of time the mouse spent in the zone immediately surrounding the object. […] After 2 h, object recognition was tested, using the same procedure as in training except that a novel object was substituted for one of the familiar training objects and mice were allowed to explore for 5 min. Mice inherently prefer to explore novel objects; thus, a preference for the novel object indicates intact memory for the familiar object.

[2] = test system: hippocampal CA1 LTP (Schaffer collateral pathway); assay: Extracellular field-potential recordings, LTP in hippocampal slices at PND21; assay type: in vivo, mice; conditions: molsidomine 4 mg/kg ip after PND7 exposure
Protocol: 1.3.2 Anesthesia, Peptide, and Molsidomine Injections. PND7 control and experimental mice were placed in a clear plastic cone and body temperature maintained by a heating blanket set to 35° C. Vital signs and physiological monitoring were assessed using PhysioSuite® (Kent Scientific Corporation, Torrington, Conn., USA) and blood gasses were collected arterially. […] Note that lower concentrations of 02 can be used, e.g., between 20% to 100% 02, including 20%, 25%, 30%, 35%, 40%, 45%, 50%, 55%, 60%, 65%, 70%, 75%, 80%, 85%, 90%, 95%, 96%, 97%, 98%, 99%, and 100% 02. Naïve animals were left with the dams. Anesthesia was initiated with 2.4% ISO in 100% oxygen for 2 min and tapered down to 1.5% within 15 min. Exposure to 1.5% ISO was continued for 3 hours and 45 min (total 4 hours ISO). Control ‘CON’ animals were exposed to 100% oxygen only. At the end of the exposure animals were maintained in oxygen on the heating blanket for 10 min then returned to dams. […] Tao and Johns, 2008. A single injection of peptide was given ip. […]
1.3.6.2. […] Synaptic responses were recorded using a MultiClamp 700B amplifier, and the signal was digitized with Digidita 1440A, analyzed with pClamp10 and stored on a personal computer. […] Measurements of the fEPSP slopes were made during the rising phase (5-50% of the peak) and the values normalized to the mean values recorded in 20-min baseline. […]

ERK = assay: Western blot, phosphorylation status of ERK in hippocampal tissues; assay type: in vivo; conditions: PND7 mice; BAY 60-7550 3 mg/kg 30 min, molsidomine 4 mg/kg 30 min
Protocol: PND7 mice were exposed to isoflurane (1.5% ISO in 02, 4 hr), control gas (100% O2, 4 hr), PDE inhibitor (BAY 60-7550, 3 mg/kg, 30 min), or NO donor (molsidomine, 4 mg/kg, 30 min), we harvested hippocampal tissues for Western blotting to assess the phosphorylation status of ERK.

[3] = test system: hippocampal dendritic mushroom spines (dentate gyrus); assay type: in vivo, mice; conditions: molsidomine 4 mg/kg ip after PND7 exposure, PND49
Protocol: PND7 control and experimental mice were placed in a clear plastic cone and body temperature maintained by a heating blanket set to 35° C. Heart rate (HR) and oxyhemoglobin saturation (SpO2) were continuously monitored using pulse-oximetry (PhysioSuite, Kent Scientific). Arterial blood was collected by terminal cardiac puncture of the left ventricle from sentinels and pH (pHa) determined using a blood gas machine (ABL800 FLEX Series Radiometer). […] Naïve control animals were left with the dams. Control ‘CON’ animals were exposed to oxygen only. Anesthesia was initiated with 2.4% isoflurane in oxygen for 2 min and tapered down to 1.5% within 15 min. Exposure to 1.5% isoflurane was continued for 3 hours and 45 min (total 4 hours ISO). At the end of the exposure animals were maintained in oxygen on the heating blanket for 10 min then returned to dams. […] Tao and Johns, 2008. Purification of fusion peptides was performed by Creative BioMart (Shirley, N.Y.) and verified by Coomassie blue staining and Western blot analysis and then stored in 10% glycerol/phosphate-buffered saline at −80° C. until use. The Tat-PSD-95 PDZ2WT and MUT plasmids used to generate proteins containing an amino-terminal, in-frame, 11-amino-acid, minimal transduction domain (residues 47-57 of human immunodeficiency virus Tat protein) termed Tat. […] Fang et al., 2003. […]

Row | SMILES | effect on isoflurane-induced loss of synapses at DIV14 (neuron cultures) | effect on PDZ2WT-induced loss of long thin spines and filopodia at DIV7 (primary neuron cultures) | effect on isoflurane-induced loss of long thin spines and filopodia at DIV7 (primary neuron cultures) | PDZ domain-mediated protein interactions [1] | amount of pERK (ERK) | also measured
1 | O=c1onc2cnc3ccccc3n12 [ODQ] | blocked the prevention with DETA | blocked the prevention with NO donor | blocked the prevention with NO donor | – | – | –
2 | NCCN(CCN)/[N+]([O-])=N/O [DETA NONOate] | prevented loss of synapses | prevented loss of immature spines | prevented loss of immature spines | – | – | –
3 | FCOC(C(F)(F)F)C(F)(F)F [sevoflurane, 1,1,1,3,3,3-hexafluoro-2-(fluoromethoxy)propane] | – | – | – | can disrupt PDZ domain-mediated protein-protein interactions in vitro and in vivo | – | long thin spines and filopodia at DIV7 after exposure (primary neuron cultures; 4 hrs: isoflurane 1.5%, PDZ2WT peptide 1 μM or sevoflurane 2.1%): loss of filopodia
4 | CCOC(=O)Nc1c[n+](N2CCOCC2)no1 [molsidomine, N-ethoxycarbonyl-3-morpholinosydnonimine] | – | – | – | – | significant increases in the amount of pERK | effect of NO donor on impairment in recognition memory caused by ISO or PDZ2WT peptide (C57BL6 mice): prevents impairment in LTP and recognition memory; effect of NO donor on impairment in LTP caused by ISO or PDZ2WT peptide [2]: prevents impairment in LTP and recognition memory; effect of NO donor on decrease in mushroom spine density caused by isoflurane or PDZ2WT peptide [3]: prevents the decrease in mushroom spine density
5 | FC(F)(F)C(Cl)Br (centres unmarked) [halothane, 2-bromo-2-chloro-1,1,1-trifluoroethane] | – | – | – | can disrupt PDZ domain-mediated protein-protein interactions in vitro and in vivo | – | –
6 | COc1ccc(Cc2nn3c([C@@H](CCCc4ccccc4)[C@@H](C)O)nc(C)c3c(=O)[nH]2)cc1OC [BAY 60-7550] | – | – | – | – | significant increases in the amount of pERK | –
